Ends that are not written are not given here.
Tests used:
[1] = system: plasmodium yoelii sporozoites; assay: Protection from sporozoite challenge, TCBL derG in inbred mice (Tables 5, 6); format: in vivo
Text: (§1) Next using another antigen with B and T cell activity two inbred strains of mice, (A/J and Balb/c) were immunized twice at three week intervals with the L.E.A.P.S.™ constructs (J-GF/SF or der-SF/GF) or with the subunits (SF/GF, J and derG) used to make heteroconjugated peptides, and were challenged with 100 Plasmodium yoelii sporozoites 2 weeks after the second immunization and protection efficacy evaluated as before. Four days before challenge, serum was collected from individual animals, pooled and analyzed immediately for antibody to SF/GF peptide sera collected from immunized and protected mice 15 days post challenge were pooled and used for IFN-γ determination by ELISA procedures.
Another experiment similar to the first except only a single strain of mice (A/J) was used with decreasing doses of the derG in order to evaluate potency as shown in Table 6.

[2] = system: IFN-γ; assay: Serum IFN-γ by ELISA; format: in vivo, mouse; details: A/J mice, sera pooled 15 days post challenge
Text: as §1

[3] = system: SF/GF peptide; assay: Serum antibody ELISA to SF/GF peptide; format: in vivo, mouse
Text: as §1

[4] = system: plasmodium yoelii sporozoites; assay: Malaria protection assay, G/W peptides (Table 4); format: in vivo; details: Experiment 2, outbred CD-1 mice; 25 μg twice; 200 sporozoites
Protocol: In particular, mice were immunized twice at three week intervals with 25 μg of the subunits (W or G) used to make the L.E.A.P.S.™ construct (GW), and were challenged with 200 plasmodium yoelii sporozoites 2 weeks after the second immunization. Protective efficacy was evaluated by thin blood smears every other day starting 4 days after the challenge. Mice were considered protected if no blood stage parasites were detectable by 14 days after challenge.

[5] = system: B16 melanoma; assay: Allogeneic murine B16 melanoma protection model; format: in vivo, mouse; details: for Protection: in combination with allogeneic cells
Protocol: In particular, C57/b16 (H2^b) mice are vaccinated with the allogeneic melanoma K1735 (H2^k) at least twice on weekly intervals and then challenged with syngeneic B16 (H2^b) tumors. […] This is clear evidence of cross-priming and the existence of shared antigens.
Peptide constructs were prepared using as T cell binding ligand, either derG (SEQ ID NO. 7), Peptide G (SEQ ID NO. 5). The peptides are synthesized using the FMOC procedure and a double coupling protocol for the first 8 residues. Usually the peptide is prepared with the carboxyl terminus as an amide form. All of the peptides are purified using prepatative HPLC, and analyzed by an analytical HPLC, amino acid analysis and mass spectrophotometer. The peptides are greater than 95%, usually greater than 98%, pure by HPLC criteria. The dry peptides are stored in vials with desiccant at −8° C. • 1) Eight groups of seven mice were injected with 200 μl of the vaccine as shown in FIG. 1. • 2) This was repeated after 7 days. • 3) A further 7 days later, mice were challenged with 200 μl saline containing 5×10^4 live B16 on the contralateral side to vaccination. • 4) Mice were sacrificed when tumor size exceeded 15 mm in either axis.
In order more precisely model the use of clinical allogeneic vaccines, a frozen vaccine was used in the mouse model wherein K-1735 cells were thawed just prior to use. Efficacy in the protection model ranged from 40-10%. Additionally, the antigen TRP2 (a.a. 180-188), found in B16 melanoma, was engineered into L.E.A.P.S.™ constructs and was tested in various permutations in the allogeneic murine melanoma model. Optimization may be necessary.

[6] = system: P. yoelii (non lethal strain 17XNL) sporozoites; assay: Comparison of lots and forms of derG in malaria system (Table 9); format: in vivo; details: A/J mice, 5 μg two times, TiterMax
Protocol: Four (4) groups of 10 mice (4-to 6-wk-old female A/J) were subcutaneously two times at 3-week intervals with 5 μg of the derG peptide, emulsified in TiterMax™ at 1:1 ratio as previously described. Two other groups of mice treated with TiterMax™ alone and untreated mice served as controls. Fourteen days after the second treatment mice were intravenously challenged with 100 P. yoelii (non lethal strain 17XNL ) sporozoites. Parasitemia was determined by microscopic examination of 200 oil-immersion fields of Geimsa stained-thin blood smears obtained from the mice at 5, 7, and 14 days post challenge.
In particular, the derG(19) peptide contains an additional glycine amino acid inserted between the A 140 and V 142 residues. The rationale for the insertion was that these two residues are involved in the CD4 interaction as disclosed in Konig et al. “MHC class II interaction with CD4 medicated by a region analogous to the MHC class I binding site for CD8”, Nature 1992; 356:796-798.

[7] = system: plasmodium yoelii sporozoites; assay: Protection from sporozoite challenge in different mouse strains (Table 7); format: in vivo; details: 25 μg, 2 times at 3 week intervals, TiterMax
Protocol: Since derG alone was able to protect A/J mice against Plasmodium yoelii sporozoites challenge, in the absence of malaria antigen, a similar experiment was conducted to evaluate the protective efficacy of derG in three other mouse strains: BALB/c (H2d), C3H/HeJ (H2K) and hybrid CAF1 (A/J×BALB/c).
Groups of 10 mice were pre-treated 2 times at 3 week intervals with 25 μg of derG in TiterMax™ adjuvant and challenged with 100 Plasmodium yoelii sporozoites. Protective efficacy was evaluated as described above.

[8] = system: HSV-1; assay: Scarification-zosteriform spread model of HSV infection; format: in vivo; details: A/J mice
Protocol: Groups of 4-to 6-wk old female A/J mice were subcutaneously inoculated once with 25 μg of the derG peptide emulsified in ISA51 adjuvant at a 1:1 ratio before challenge unless otherwise specified. Untreated mice and mice treated with adjuvant served as additional controls. The mice were challenged as specified in methods well known to those of ordinary skill in the art and as exemplified by Goel et al. (“The Ability of an HSV Strain to Initiate Zosteriform Spread Correlates with its Neuroinvasive Disease Potential”, Arch Virol 147:763-773 (2002)) and Goel et al., (“A Modification Of The Epidermal Scarification Model Of Herpes Simplex Virus Infection To Achieve A Reproducible And Uniform Progression Of Disease”, J Virol Meth 106;153-8 (2002)).
In particular, hair is removed by shaving and then Nair® is applied. Twenty-fours later the depilated back of a mouse is scratched or abraded to expose the susceptible epidermal layer and virus rubbed in. To provide more detail, 10 μl of a virus suspension containing 6×10^4 plaque forming-units was pipetted onto a 0.5 cm square of skin on mouse dorsal surface, which was previously abraded using sand paper glued on a pencil eraser. In untreated animals, the primary lesion developed at the inoculation site within 3 days and spread to the associated root, followed by anterograde transport and formation of secondary lesions at sites along the dermatome of the nerves within 5 days. In severe cases, animals died within 8 days post viral challenge. Disease progression and survival were monitored for at least 10 days. […] The progression and the severity of the lesions was scored from 0 to 7 (death). This model allows for discrimination of the disease progression (local site, neuronal spread, extent of lesion at the dermatome, death) at which the immune system blocks viral progression. In some experiments modifications in the timing, route of administration and mouse strain were evaluated for efficacy of CEL-1000.

[9] = Balb/c mice, dose 25 μg, Table 5
[10] = A/J mice, dose 5 μg, serum pool 4 days before challenge
[11] = A/J mice, dose 25 μg, serum pool 4 days before challenge
[12] = A/J mice, dose 1.25 μg, Table 6

| Substance | Protection (%) ([1]; A/J mice, dose 5 μg, Table 5) | Protection Protected/Tested ([1]; A/J mice, dose 5 μg, Table 5) | Protection (%) ([1]; A/J mice, dose 10 μg, Table 6) | Protection Protected/Tested ([1]; A/J mice, dose 10 μg, Table 6) | Protection (%) ([1]; A/J mice, dose 25 μg, Table 5) | Protection Protected/Tested ([1]; A/J mice, dose 25 μg, Table 5) | Protection (%) [1, 9] | Protection Protected/Tested [1, 9] | IFN-γ serum ([2]; dose 5 μg) | IFN-γ serum ([2]; dose 25 μg) | Antibody ELISA A490* [3, 10] | Antibody ELISA A490* [3, 11] | Antibody ELISA A490* ([3]; Balb/c mice, dose 25 μg) | Protection (%) ([1]; A/J mice, dose 5 μg, Table 6) | Protection Protected/Tested ([1]; A/J mice, dose 5 μg, Table 6) | other results |
| --- | --- | --- | --- | --- | --- | --- | --- | --- | --- | --- | --- | --- | --- | --- | --- | --- |
| DLLKNGERIEKVEGGG SFPMNEESPLGFSPEEMEAVASKFR [J-GF/SF] | (10%) | 1/10 | (56%) | 5/9 | (100%) | 10/10 | (0%) | 0/10 | 0 pg/mL | 4,000 pg/mL | 1,103 | 6,121 | 11,454 |  |  |  |
| DLLKNGERIEKVEGGG [J, short fragment from β2-microglobulin (a.a. 38-50)] | (10%) | 1/10 | (10%) | 1/10 | (10%) | 1/10 | (0%) | 0/10 |  |  | 1 | 2 | 2 |  |  |  |
| DGQEEKAGVVSTGLIGGGSFPMNEESPLGFSPEEMEAVASKFR [derG-GF/SF] | (80%) | 8/10 |  |  | (100%) | 10/10 | (0%) | 0/10 | 7,000 pg/mL | 6,000 pg/mL | 1,933 | 10,694 | 17,019 | (10%) | 1/10 |  |
| NGQEEKAGVVSTGLIGGGamide (NGQEEKAGVVSTGLIGGG-NH2) [G + TM] |  |  |  |  |  |  |  |  |  |  |  |  |  |  |  | # Protected/# tested [4]: 6/16; % protection [4]: 38%; activity compared with derG ([5]; differences from derG): much less active |
| DGQEEKAGVVSTGLIGGGamide (DGQEEKAGVVSTGLIGGG-NH2) [derG, modified fragment from MHC II β-chain (a.a.135-149)] | (100%) | 10/10 |  |  | (100%) | 10/10 | (0%) | 0/10 | 40,000 pg/mL | 18,000 pg/mL | 2 | 2 | 4 | (100%) | 10/10 | % Protected ([6]; form 18): 90%; Protected/Total ([6]; form 18): 9/10; Protection (%) [1, 12]: (60%); Protection Protected/Tested [1, 12]: 6/10; Protection (%) ([1]; A/J mice, dose 2.5 μg, Table 6): (80%); Protection Protected/Tested ([1]; A/J mice, dose 2.5 μg, Table 6): 9/10; Protection ([7]; A/J mice): 80; Protection ([7]; BALB/c mice): 0; Protection ([7]; C3H mice): 40; Protection ([7]; CAF1 hybrid mice): 40; Protection ([5]; first value named of two experiments): 30%; Protection ([5]; second value named of two experiments): 40%; protection from lethal HSV-1 challenge [8]: protects; Protection ([8]; intramuscularly 2 weeks prior to challenge, without adjuvant, in aqueous solution): 100%; onset of symptoms, morbidity and mortality ([8]; single dose of 25 μg, timing of administration): delay in onset of symptoms |
| SFPMNEESPLGFSPEEMEAVASKFR [GF/SF] | (30%) | 3/10 | (50%) | 5/10 | (100%) | 10/10 |  |  | 10,000 pg/mL | 12,500 pg/mL | 8,443 | 19,970 |  | (10%) | 1/10 |  |
| DGQEEKAGGVVSTGLIGGGamide (DGQEEKAGGVVSTGLIGGG-NH2) [derG(19), derG with an additional glycine inserted between the A 140 and V 142 residues] |  |  |  |  |  |  |  |  |  |  |  |  |  |  |  | % Protected ([6]; Lot 1): 40%; Protected/Total ([6]; Lot 1): 4/10; % Protected ([6]; Lot 2): 30%; Protected/Total ([6]; Lot 2): 3/10; % Protected ([6]; Lot 3): 50%; Protected/Total ([6]; Lot 3): 5/10 |

From patent US20060134126A1, “Peptide constructs for treating disease” (priority 2002, published 2006)
